ChEMBL document CHEMBL4002639, “DL-3-n-butylphthalide-Edaravone hybrids as novel dual inhibitors of amyloid-β aggregation and monoamine oxidases with high antioxidant potency for Alzheimer's therapy” (Bioorg Med Chem Lett, 2017)
The source made the active and inactive calls. No cut-off for these calls is given here.

Key:
[1] = Antioxidant activity assessed as trolox equivalent of AAPH radical scavenging activity at 1 uM preincubated for 15 mins followed by AAPH addition measured every min for 90 mins by ORAC-FL assay; type: functional
[2] = molecular target: T1, Amine oxidase [flavin-containing] B (Homo sapiens, UniProt P27338); assay: Inhibition of recombinant human MAO-B at 10 uM using kynuramine as substrate after 30 mins by fluorescence assay; conditions: 0.5 h
T1 sequence (P27338 whole entry): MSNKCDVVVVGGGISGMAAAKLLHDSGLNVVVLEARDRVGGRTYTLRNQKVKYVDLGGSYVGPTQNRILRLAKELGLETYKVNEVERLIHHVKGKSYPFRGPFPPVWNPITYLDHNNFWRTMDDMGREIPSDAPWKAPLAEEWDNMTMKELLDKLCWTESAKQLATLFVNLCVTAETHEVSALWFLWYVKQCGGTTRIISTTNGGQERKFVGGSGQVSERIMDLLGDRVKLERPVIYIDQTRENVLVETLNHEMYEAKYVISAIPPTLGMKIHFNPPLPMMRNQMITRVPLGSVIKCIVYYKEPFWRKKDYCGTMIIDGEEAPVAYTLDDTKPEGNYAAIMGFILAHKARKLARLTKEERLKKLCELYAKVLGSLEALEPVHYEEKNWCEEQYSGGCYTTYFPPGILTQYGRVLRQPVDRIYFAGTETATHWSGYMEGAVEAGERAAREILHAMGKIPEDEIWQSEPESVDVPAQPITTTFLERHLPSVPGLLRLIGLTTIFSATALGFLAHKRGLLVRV

[3] = molecular target: Amyloid-beta precursor protein (Homo sapiens) (UniProt P05067); assay: Inhibition of self-induced Amyloid beta (1 to 42) (unknown origin) aggregation at 25 uM after 24 hrs by thioflavin T-based fluorometric assay relative to control
Amyloid-beta precursor protein (Homo sapiens), sequence (P05067 whole entry): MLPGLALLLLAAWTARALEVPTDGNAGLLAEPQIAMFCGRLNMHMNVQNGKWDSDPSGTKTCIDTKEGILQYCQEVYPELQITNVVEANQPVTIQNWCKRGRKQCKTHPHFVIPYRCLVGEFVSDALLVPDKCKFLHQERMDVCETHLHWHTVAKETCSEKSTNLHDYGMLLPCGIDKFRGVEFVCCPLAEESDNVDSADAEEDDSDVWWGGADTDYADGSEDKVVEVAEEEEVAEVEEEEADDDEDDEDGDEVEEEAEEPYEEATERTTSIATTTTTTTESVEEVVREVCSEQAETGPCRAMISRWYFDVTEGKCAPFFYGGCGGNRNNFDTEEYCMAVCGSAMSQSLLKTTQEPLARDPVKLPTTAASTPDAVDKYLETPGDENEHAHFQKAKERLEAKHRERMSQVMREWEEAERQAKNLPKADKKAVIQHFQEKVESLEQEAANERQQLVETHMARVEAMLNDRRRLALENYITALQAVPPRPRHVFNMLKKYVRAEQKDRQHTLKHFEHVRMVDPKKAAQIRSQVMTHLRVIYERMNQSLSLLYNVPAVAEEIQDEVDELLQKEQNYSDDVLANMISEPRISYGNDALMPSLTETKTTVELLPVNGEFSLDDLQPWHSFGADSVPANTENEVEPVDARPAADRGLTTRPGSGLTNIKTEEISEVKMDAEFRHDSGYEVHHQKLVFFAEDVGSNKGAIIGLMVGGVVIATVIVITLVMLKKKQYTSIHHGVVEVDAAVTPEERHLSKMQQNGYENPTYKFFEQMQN

[4] = molecular target: T2, Amine oxidase [flavin-containing] A (Homo sapiens, UniProt P21397); assay: Inhibition of recombinant human MAO-A at 10 uM using kynuramine as substrate after 30 mins by fluorescence assay; conditions: 0.5 h
T2 sequence (P21397 whole entry): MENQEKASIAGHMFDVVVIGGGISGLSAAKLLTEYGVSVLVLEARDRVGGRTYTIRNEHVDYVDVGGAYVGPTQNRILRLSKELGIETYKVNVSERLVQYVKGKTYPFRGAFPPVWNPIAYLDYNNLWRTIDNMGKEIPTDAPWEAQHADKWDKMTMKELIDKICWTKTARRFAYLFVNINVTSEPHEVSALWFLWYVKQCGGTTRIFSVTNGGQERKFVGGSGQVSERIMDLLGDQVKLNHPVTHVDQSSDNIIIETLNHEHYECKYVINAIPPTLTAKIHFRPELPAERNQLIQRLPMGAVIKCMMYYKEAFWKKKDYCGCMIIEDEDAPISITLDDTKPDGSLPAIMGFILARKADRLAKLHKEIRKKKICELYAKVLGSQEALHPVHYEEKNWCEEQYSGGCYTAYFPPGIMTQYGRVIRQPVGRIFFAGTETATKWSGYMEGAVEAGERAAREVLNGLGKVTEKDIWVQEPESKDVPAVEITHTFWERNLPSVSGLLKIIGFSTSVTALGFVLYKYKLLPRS

[5] = species: Homo sapiens; assay: Selectivity index, ratio of IC50 for recombinant human MAO-A to IC50 for recombinant human MAO-B
[6] = molecular target: T1, Amine oxidase [flavin-containing] B
Description: Inhibition of recombinant human MAO-B using kynuramine as substrate after 30 mins by fluorescence assay

[7] = molecular target: T2, Amine oxidase [flavin-containing] A; assay: Inhibition of recombinant human MAO-A using kynuramine as substrate after 30 mins by fluorescence assay

Structure (SMILES) | Activity [1] | inhibition at 10 µM [2] | inhibition [3] | inhibition at 10 µM [4] | Ratio IC50 [5] | IC50 [6] | IC50 [7]
CC1=NN(c2ccccc2)C(=O)C1 [EDARAVONE] | 0.72 µMequiv/µM | 7.29% | 20.1% | < 5% |  |  | 
CCCCCCCC1OC(=O)c2cc(N3N=C(C)CC3=O)ccc21 (stereo unspecified) | 1.18 µMequiv/µM |  | 71.5% |  |  |  | 
CCCCCCC1OC(=O)c2cc(-n3nc(C(F)(F)F)cc3O)ccc21 (stereo unspecified) | 2.28 µMequiv/µM |  | inactive |  |  |  | 
CCCCC1OC(=O)c2cc(N3N=C(C)CC3=O)ccc21 (stereo unspecified) | 1.03 µMequiv/µM |  | 50.1 to 71.5% |  |  |  | 
CCCCC1OC(=O)c2ccccc21 (racemic) [RAC-3-N-BUTYLPHTHALIDE] | 0.21 µMequiv/µM | 18.2% | 1.2% | 11.2% |  |  | 
CCCCCC1OC(=O)c2cc(N3N=C(C)CC3=O)ccc21 (stereo unspecified) | 0.62 µMequiv/µM |  | 50.1 to 71.5% |  | 1.5 | 12.9 µM | 19.3 µM
CCCCC1OC(=O)c2cc(-n3nc(C(F)(F)F)cc3O)ccc21 (stereo unspecified) | 2.22 µMequiv/µM |  | 50.1 to 71.5% |  |  |  | 
CCCCCC1OC(=O)c2cc(-n3nc(C(F)(F)F)cc3O)ccc21 (stereo unspecified) | 2.37 µMequiv/µM |  | inactive |  |  |  | 
COc1cc(/C=C/C(=O)CC(=O)/C=C/c2ccc(O)c(OC)c2)ccc1O |  |  | 39% |  |  |  | 
CCCCCCC1OC(=O)c2cc(N3N=C(C)CC3=O)ccc21 (stereo unspecified) | 0.85 µMequiv/µM |  | 50.1 to 71.5% |  | 2 | 7.59 µM | 15.2 µM
CCCCCCCC1OC(=O)c2cc(-n3nc(C(F)(F)F)cc3O)ccc21 (stereo unspecified) | 2.21 µMequiv/µM |  | inactive |  |  |  | 
